# Results published in patent publication US10689354B2, “Aminoazole derivative” (Teijin Pharma Limited, priority 2015, dated 2020).
# Target: T1, androgen receptor (AR-LBD) (Rattus norvegicus, UniProt P15207)
# T1 construct: 5 μL of 2×AR-LBD/Fluoromone AL Red Complex contained in the kit; purchased Invitrogen
# T1 sequence (P15207 651-882 limits assumed): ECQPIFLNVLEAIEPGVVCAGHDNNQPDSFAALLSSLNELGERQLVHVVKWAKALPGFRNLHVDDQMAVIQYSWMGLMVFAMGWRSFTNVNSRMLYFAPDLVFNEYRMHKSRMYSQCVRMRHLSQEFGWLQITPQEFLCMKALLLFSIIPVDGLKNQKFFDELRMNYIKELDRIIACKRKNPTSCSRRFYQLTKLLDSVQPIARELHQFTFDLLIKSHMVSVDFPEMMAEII
# Test: Evaluation of androgen receptor affinity (PolarScreen Androgen Receptor Competitor Assay Kit, Red; fluorescence polarization)
# Conditions: 22° C. for 5 hours, relative to binding rate of 1 μM DHT, read-out: AR affinity (pEC50) (converted)
# Method: Evaluation of an Androgen Receptor Affinity
# To examine the interaction of a compound with an androgen receptor, evaluation was carried out in accordance with the following procedure using PolarScreen™ Androgen Receptor Competitor Assay Kit, Red (Invitrogen). To 2 wells each of a 384 well black plate was added 5 μL of the compound solution. To each well was added 5 μL of 2×AR-LBD/Fluoromone AL Red Complex contained in the kit and the samples were reacted at 22° C. for 5 hours. After 5 hours of the reaction, fluorescence polarization was measured and the affinity was evaluated. The affinity of the compound was determined by comparing to the binding rate of 1 μM of dihydrotestosterone (DHT), and quantified the logarithm value (pEC50) of reciprocal value of the effective concentration of the compound which is equal to 50% of the binding rate by applying a 4 parameter goodness-of-fit calculation.
row,SMILES,EC50
1,"CC(=O)c1cccc(CN(c2ccc(C#N)cc2)c2nc(C(=O)NS(C)(=O)=O)c(C)s2)c1 [Compound 95, 2-[N-[(3-acetylphenyl)methyl]-4-cyano-anilino]-5-methyl-N-methylsulfonyl-thiazole-4-carboxamide]",251 nM
2,"Cc1sc(N(CCn2nccn2)Cc2ccccc2)nc1C(=O)NS(C)(=O)=O [Compound 679, 2-[benzyl-[2-(triazol-2-yl)ethyl]amino]-5-methyl-N-methylsulfonyl-thiazole-4-carboxamide]",> 2000 nM
3,"Cc1sc(N(Cc2ccc(OCCO)cc2)c2ccc(C#N)cc2)nc1C(=O)NS(C)(=O)=O [Compound 569, 2-[4-cyano-N-[[4-(2-hydroxyethoxy)phenyl]methyl]anilino]-5-methyl-N-methylsulfonyl-thiazole-4-carboxamide]",631 nM
4,"Cc1sc(N(Cc2ccccc2)c2ccc(C#N)cc2)nc1C(=O)NS(=O)(=O)CCN1CCOCC1 [Compound 429, 2-(N-benzyl-4-cyano-anilino)-5-methyl-N-(2-morpholinoethylsulfonyl)thiazole-4-carboxamide]",> 2000 nM
5,"Cc1cc(F)cc(CN(c2ccc(C#N)cc2)c2nc(C(=O)NS(C)(=O)=O)c(C)s2)c1 [Compound 98, 2-[4-cyano-N-[(3-fluoro-5-methyl-phenyl)methyl]anilino]-5-methyl-N-methylsulfonyl-thiazole-4-carboxamide]",39.8 nM
6,"CNC(=O)COc1ccc(CN(c2ccc(C#N)cc2)c2nc(C(=O)NS(C)(=O)=O)c(C)s2)cc1 [Compound 574, 2-[4-cyano-N-[[4-[2-(methylamino)-2-oxo-ethoxy]phenyl]methyl]anilino]-5-methyl-N-methylsulfonyl-thiazole-4-carboxamide]",> 2000 nM
7,"Cc1sc(N(CC[C@@H]2CC[C@@H](F)C2)c2ccc(C#N)cc2)nc1C(=O)NS(C)(=O)=O (racemic) [Compound 453, 2-[4-cyano-N-[2-[trans-3-fluorocyclopentyl]ethyl]anilino]-5-methyl-N-methylsulfonyl-thiazole-4-carboxamide]",251 nM
8,"Cc1sc(N(Cc2cscn2)c2ccc(C#N)cc2)nc1C(=O)NS(C)(=O)=O [Compound 380, 2-[4-cyano-N-(thiazol-4-ylmethyl)anilino]-5-methyl-N-methylsulfonyl-thiazole-4-carboxamide]",794 nM
9,"COC(=O)c1ccc(N(Cc2ccccc2)c2nc(C(=O)NS(C)(=O)=O)c(C)s2)nn1 [Example 239, methyl 6-[benzyl-[5-methyl-4-(methylsulfonylcarbamoyl)thiazol-2-yl]amino]pyridazine-3-carboxylate]",> 2000 nM
10,"Cc1sc(N(CCn2cccn2)Cc2ccccc2)nc1C(=O)NS(C)(=O)=O [Compound 688, 2-[benzyl(2-pyrazol-1-ylethyl)amino]-5-methyl-N-methylsulfonyl-thiazole-4-carboxamide]",> 2000 nM
11,"Cc1sc(N(Cc2ccccc2)c2ccc(C#N)nc2)nc1C(=O)NS(C)(=O)=O [Compound 604, 2-[benzyl-(6-cyano-3-pyridyl)amino]-5-methyl-N-methylsulfonyl-thiazole-4-carboxamide]",> 2000 nM
12,"Cc1sc(N(Cc2ccccc2)c2cccc(OCCO)c2)nc1C(=O)NS(C)(=O)=O [Example 210, 2-[N-benzyl-3-(2-hydroxyethoxy)anilino]-5-methyl-N-methylsulfonyl-thiazole-4-carboxamide]",> 2000 nM
13,"Cc1sc(N(Cc2ccccc2)c2ccc(S(C)(=O)=O)cc2)nc1C(=O)NS(C)(=O)=O [Example 261, 2-(N-benzyl-4-methylsulfonyl-anilino)-5-methyl-N-methylsulfonyl-thiazole-4-carboxamide]",1260 nM
14,"Cc1sc(N(CCn2cncn2)Cc2ccccc2)nc1C(=O)NS(C)(=O)=O [Compound 680, 2-[benzyl-[2-(1,2,4-triazol-1-yl)ethyl]amino]-5-methyl-N-methylsulfonyl-thiazole-4-carboxamide]",> 2000 nM
15,"Cc1sc(N(Cc2ccccc2)c2ccccc2O)nc1C(=O)NS(C)(=O)=O [Example 207, 2-(N-benzyl-2-hydroxy-anilino)-5-methyl-N-methylsulfonyl-thiazole-4-carboxamide]",> 2000 nM
16,"COc1ccccc1CN(c1ccc(C#N)cc1)c1nc(C(=O)NS(C)(=O)=O)c(Br)s1 [Example 249, 5-bromo-2-[4-cyano-N-[(2-methoxyphenyl)methyl]anilino]-N-methylsulfonyl-thiazole-4-carboxamide]",100 nM
17,"Cc1sc(N(Cc2ccccc2)c2ccc(F)c(F)c2)nc1C(=O)NS(C)(=O)=O [Compound 48, 2-(N-benzyl-3,4-difluoro-anilino)-5-methyl-N-methylsulfonyl-thiazole-4-carboxamide]",398 nM
18,"Cc1sc(N(CC[C@@H]2CC[C@@H](O)C2)c2ccc(C#N)cc2)nc1C(=O)NS(C)(=O)=O (racemic) [Compound 459, 2-[4-cyano-N-[2-[trans-3-hydroxycyclopentyl]ethyl]anilino]-5-methyl-N-methylsulfonyl-thiazole-4-carboxamide]",1260 nM
19,"Cc1sc(N(Cc2ccccc2)c2ccc(OCC(=O)O)cc2)nc1C(=O)NS(C)(=O)=O [Example 212, 2-[4-[benzyl-[5-methyl-4-(methylsulfonylcarbamoyl)thiazol-2-yl]amino]phenoxy]acetic acid]",> 2000 nM
20,"C=CCCN(c1ccc(C#N)cc1)c1nc(C(=O)NS(C)(=O)=O)c(C)s1 [Compound 448, 2-(N-but-3-enyl-4-cyano-anilino)-5-methyl-N-methylsulfonyl-thiazole-4-carboxamide]",1260 nM
21,"Cc1sc(N(CC2CCCOC2)c2ccc(C#N)cc2)nc1C(=O)NS(C)(=O)=O (stereo not drawn) [Compound 120, 2-[4-cyano-N-(tetrahydropyran-3-ylmethyl)anilino]-5-methyl-N-methylsulfonyl-thiazole-4-carboxamide]",> 2000 nM
22,"Cc1sc(N(CCc2coc3ccccc23)Cc2ccccc2)nc1C(=O)NS(C)(=O)=O [Compound 707, 2-[2-(benzofuran-3-yl)ethyl-benzyl-amino]-5-methyl-N-methylsulfonyl-thiazole-4-carboxamide]",> 2000 nM
23,"Cc1sc(N(Cc2ccccc2)c2cccnc2)nc1C(=O)NS(C)(=O)=O [Compound 49, 2-[benzyl(3-pyridyl)amino]-5-methyl-N-methylsulfonyl-thiazole-4-carboxamide]",> 2000 nM
24,"Cc1sc(N(Cc2ccccc2)c2cccc(OC(F)(F)F)c2)nc1C(=O)NS(C)(=O)=O [Compound 35, 2-[N-benzyl-3-(trifluoromethoxy)anilino]-5-methyl-N-methylsulfonyl-thiazole-4-carboxamide]",> 2000 nM
25,"Cc1sc(N(CCCC#N)c2ccc(C#N)cc2)nc1C(=O)NS(C)(=O)=O [Compound 360, 2-[4-cyano-N-(3-cyanopropyl)anilino]-5-methyl-N-methylsulfonyl-thiazole-4-carboxamide]",> 2000 nM
26,"Cc1sc(N(Cc2ccccc2)c2ccc(O)cc2)nc1C(=O)NS(C)(=O)=O [Example 206, 2-(N-benzyl-4-hydroxy-anilino)-5-methyl-N-methylsulfonyl-thiazole-4-carboxamide]",> 2000 nM
27,"Cc1sc(N(CCC2CCNCC2)Cc2ccccc2)nc1C(=O)NS(C)(=O)=O [Compound 705, 2-[benzyl-[2-(4-piperidyl)ethyl]amino]-5-methyl-N-methylsulfonyl-thiazole-4-carboxamide]",> 2000 nM
